Reference: ChEMBL document CHEMBL1833945, “Synthesis and anticonvulsant activity of new N-Mannich bases derived from 5-cyclopropyl-5-phenyl- and 5-cyclopropyl-5-(4-chlorophenyl)-imidazolidine-2,4-diones” (Bioorg Med Chem, 2011)
The source made the active and inactive calls. The calls are words filed in the database; no cut-off is given here.

How the values were obtained:
Rattus norvegicus [1] = species on record: Rattus norvegicus
Description: Protective index, ratio of TD50 for neurotoxicity in Sprague-Dawley albino rat to ED50 for inhibition of subcutaneous pentylenetetrazole-induced seizures in Sprague-Dawley albino rat

Rattus norvegicus [2] = experiment: Neurotoxicity in Sprague-Dawley albino rat assessed as motor impairment at 50 mg/kg, po after 2 hrs by rotarod test; type: toxicity, organism-based; design: dose 50 mg/kg, route oral; details: in vivo
Mus musculus [3] = experiment: Anticonvulsant activity in CF1 albino mouse assessed as protection against maximal electroshock-induced seizures at 300 mg/kg, ip after 4 hrs; type: functional, organism-based; design: dose 300 mg/kg
Mus musculus [4] = experiment: Anticonvulsant activity in CF1 albino mouse assessed as protection against maximal electroshock-induced seizures at 300 mg/kg, ip after 0.5 hrs; type: functional, organism-based; design: dose 300 mg/kg
Mus musculus [5] = experiment: Neurotoxicity in CF1 albino mouse assessed as impair in motor coordination at 300 mg/kg, ip after 0.5 hrs by rotarod test; type: toxicity, organism-based; design: dose 300 mg/kg, route intraperitoneal; details: in vivo
Rattus norvegicus [6] = experiment: Anticonvulsant activity in Sprague-Dawley albino rat assessed as protection against subcutaneous pentylenetetrazole-induced seizures at 50 mg/kg, po after 4 hrs; type: functional, organism-based; design: dose 50 mg/kg
Rattus norvegicus [7] = experiment: Neurotoxicity in Sprague-Dawley albino rat assessed as motor impairment at 50 mg/kg, po after 1 hrs by rotarod test; type: toxicity, organism-based; design: dose 50 mg/kg, route oral; details: in vivo
Rattus norvegicus [8] = experiment: Anticonvulsant activity in po dosed Sprague-Dawley albino rat assessed as time to peak effect; type: functional
[9] = Neurotoxicity in oral dosed Sprague-Dawley albino rat assessed as motor impairment by rotarod test; type: toxicity, organism-based; details: in vivo
Rattus norvegicus [10] = experiment: Neurotoxicity in Sprague-Dawley albino rat assessed as motor impairment at 50 mg/kg, po after 0.5 hrs by rotarod test; type: toxicity, organism-based; design: dose 50 mg/kg, route oral; details: in vivo
Mus musculus [11] = experiment: Anticonvulsant activity in ip dosed CF1 albino mouse assessed as protection against subcutaneous pentylenetetrazole-induced seizures after 0.5 hrs; type: functional; details: read-out: MED
Rattus norvegicus [12] = experiment: Anticonvulsant activity in po dosed Sprague-Dawley albino rat assessed as protection against maximal electroshock-induced seizures; type: functional
Mus musculus [13] = experiment: Neurotoxicity in CF1 albino mouse assessed as impair in motor coordination at 300 mg/kg, ip after 4 hrs by rotarod test; type: toxicity, organism-based; design: dose 300 mg/kg, route intraperitoneal; details: in vivo
Rattus norvegicus [14] = experiment: Neurotoxicity in Sprague-Dawley albino rat assessed as motor impairment at 50 mg/kg, po after 0.25 hrs by rotarod test; type: toxicity, organism-based; design: dose 50 mg/kg, route oral; details: in vivo
Rattus norvegicus [15] = experiment: Anticonvulsant activity in Sprague-Dawley albino rat assessed as protection against subcutaneous pentylenetetrazole-induced seizures at 50 mg/kg, po after 0.25 hrs; type: functional, organism-based; design: dose 50 mg/kg
Mus musculus [16] = experiment: Anticonvulsant activity in ip dosed CF1 albino mouse assessed as protection against subcutaneous pentylenetetrazole-induced seizures after 4 hrs; type: functional; details: read-out: MED
Rattus norvegicus [17] = experiment: Neurotoxicity in Sprague-Dawley albino rat assessed as motor impairment at 50 mg/kg, po after 4 hrs by rotarod test; type: toxicity, organism-based; design: dose 50 mg/kg, route oral; details: in vivo
[18] = Neurotoxicity in ip dosed CF1 albino mouse assessed as impair in motor coordination by rotarod test; type: toxicity, organism-based; details: in vivo
Mus musculus [19] = experiment: Anticonvulsant activity in CF1 albino mouse assessed as time to peak effect at 100 mg/kg, ip; type: functional; details: route intraperitoneal
Mus musculus [20] = experiment: Neurotoxicity in ip dosed CF1 albino mouse assessed as minimum dose required to cause impair in motor coordination after 4 hrs by rotarod test; type: toxicity, organism-based; details: in vivo
Mus musculus [21] = experiment: Anticonvulsant activity in ip dosed CF1 albino mouse assessed as protection against maximal electroshock-induced seizures after 4 hrs; type: functional; details: read-out: MED
Mus musculus [22] = experiment: Neurotoxicity in ip dosed CF1 albino mouse assessed as minimum dose required to cause impair in motor coordination after 0.5 hrs by rotarod test; type: toxicity, organism-based; details: in vivo
Mus musculus [23] = experiment: Anticonvulsant activity in ip dosed CF1 albino mouse assessed as protection against maximal electroshock-induced seizures after 0.5 hrs; type: functional; details: read-out: MED
Mus musculus [24] = experiment: Toxicity in subcutaneous pentylenetetrazole-induced CF1 albino mouse assessed as myoclonic jerks at 300 mg/kg, ip after 0.5 hrs; type: organism-based; design: dose 300 mg/kg; details: in vivo, sc
[25] = Lipophilicity, log P of compound; type: physicochemical; details: octanol/water
Mus musculus [26] = experiment: Toxicity in subcutaneous pentylenetetrazole-induced CF1 albino mouse assessed as myoclonic jerks at 100 mg/kg, ip after 4 hrs; type: organism-based; design: dose 100 mg/kg; details: in vivo, sc
Mus musculus [27] = experiment: Neurotoxicity in CF1 albino mouse assessed as loss of rotard grasping at 300 mg/kg, ip after 4 hrs by rotarod test; type: toxicity, organism-based; design: dose 300 mg/kg, route intraperitoneal; details: in vivo
Mus musculus [28] = experiment: Neurotoxicity in CF1 albino mouse assessed as tremors at 300 mg/kg, ip after 0.5 hrs by rotarod test; type: toxicity, organism-based; design: dose 300 mg/kg, route intraperitoneal; details: in vivo
Mus musculus [29] = experiment: Neurotoxicity in CF1 albino mouse assessed as loss of rotard grasping at 300 mg/kg, ip after 0.5 hrs by rotarod test; type: toxicity, organism-based; design: dose 300 mg/kg, route intraperitoneal; details: in vivo
Rattus norvegicus [30] = experiment: Neurotoxicity in Sprague-Dawley albino rat assessed as motor impairment at 30 mg/kg, po after 4 hrs by rotarod test; type: toxicity, organism-based; design: dose 30 mg/kg, route oral; details: in vivo
Rattus norvegicus [31] = species on record: Rattus norvegicus; experiment: Protective index, ratio of TD50 for neurotoxicity in Sprague-Dawley albino rat to ED50 for inhibition of maximal electroshock-induced seizures in Sprague-Dawley albino rat; type: functional
Rattus norvegicus [32] = experiment: Anticonvulsant activity in Sprague-Dawley albino rat assessed as protection against subcutaneous pentylenetetrazole-induced seizures at 50 mg/kg, po after 1 hrs; type: functional, organism-based; design: dose 50 mg/kg
Rattus norvegicus [33] = experiment: Neurotoxicity in Sprague-Dawley albino rat assessed as motor impairment at 30 mg/kg, po after 1 hrs by rotarod test; type: toxicity, organism-based; design: dose 30 mg/kg, route oral; details: in vivo
Rattus norvegicus [34] = experiment: Anticonvulsant activity in Sprague-Dawley albino rat assessed as protection against subcutaneous pentylenetetrazole-induced seizures at 50 mg/kg, po after 2 hrs; type: functional, organism-based; design: dose 50 mg/kg
Rattus norvegicus [35] = experiment: Neurotoxicity in Sprague-Dawley albino rat assessed as motor impairment at 30 mg/kg, po after 0.25 hrs by rotarod test; type: toxicity, organism-based; design: dose 30 mg/kg, route oral; details: in vivo
Rattus norvegicus [36] = experiment: Anticonvulsant activity in Sprague-Dawley albino rat assessed as protection against subcutaneous pentylenetetrazole-induced seizures at 50 mg/kg, po after 0.5 hrs; type: functional, organism-based; design: dose 50 mg/kg
Mus musculus [37] = experiment: Neurotoxicity in CF1 albino mouse assessed as minimum dose causing loss of righting reflex at 300 mg/kg, ip after 4 hrs by rotarod test; type: toxicity, organism-based; design: dose 300 mg/kg, route intraperitoneal; details: in vivo
Rattus norvegicus [38] = experiment: Neurotoxicity in Sprague-Dawley albino rat assessed as motor impairment at 30 mg/kg, po after 0.5 hrs by rotarod test; type: toxicity, organism-based; design: dose 30 mg/kg, route oral; details: in vivo
Rattus norvegicus [39] = experiment: Neurotoxicity in Sprague-Dawley albino rat assessed as motor impairment at 30 mg/kg, po after 2 hrs by rotarod test; type: toxicity, organism-based; design: dose 30 mg/kg, route oral; details: in vivo
Rattus norvegicus [40] = experiment: Anticonvulsant activity in Sprague-Dawley albino rat assessed as protection against maximal electroshock-induced seizures at 30 mg/kg, po after 0.25 hrs; type: functional, organism-based; design: dose 30 mg/kg
Mus musculus [41] = experiment: Anticonvulsant activity in CF1 albino mouse assessed as protection against electrically-induced seizure at 100 mg/kg, ip after 0.5 hrs by 6Hz psychomotor seizure test; type: functional, organism-based; design: dose 100 mg/kg
Rattus norvegicus [42] = experiment: Anticonvulsant activity in po dosed Sprague-Dawley albino rat assessed as protection against subcutaneous pentylenetetrazole-induced seizures; type: functional
Rattus norvegicus [43] = experiment: Anticonvulsant activity in Sprague-Dawley albino rat assessed as protection against maximal electroshock-induced seizures at 30 mg/kg, po after 0.5 hrs; type: functional, organism-based; design: dose 30 mg/kg
Rattus norvegicus [44] = experiment: Anticonvulsant activity in Sprague-Dawley albino rat assessed as protection against maximal electroshock-induced seizures at 30 mg/kg, po after 4 hrs; type: functional, organism-based; design: dose 30 mg/kg
Rattus norvegicus [45] = experiment: Anticonvulsant activity in Sprague-Dawley albino rat assessed as protection against maximal electroshock-induced seizures at 30 mg/kg, po after 2 hrs; type: functional, organism-based; design: dose 30 mg/kg
Rattus norvegicus [46] = experiment: Anticonvulsant activity in Sprague-Dawley albino rat assessed as protection against maximal electroshock-induced seizures at 30 mg/kg, po after 1 hrs; type: functional, organism-based; design: dose 30 mg/kg
Mus musculus [47] = experiment: Anticonvulsant activity in ip dosed CF1 albino mouse assessed as protection against electrically-induced seizure by 6Hz psychomotor seizure test; type: functional
Mus musculus [48] = experiment: Anticonvulsant activity in CF1 albino mouse assessed as protection against electrically-induced seizure at 100 mg/kg, ip after 1 hrs by 6Hz psychomotor seizure test; type: functional, organism-based; design: dose 100 mg/kg
Mus musculus [49] = experiment: Anticonvulsant activity in CF1 albino mouse assessed as protection against electrically-induced seizure at 100 mg/kg, ip after 2 hrs by 6Hz psychomotor seizure test; type: functional, organism-based; design: dose 100 mg/kg

Compound | PI (Rattus norvegicus [1]) | Activity (Rattus norvegicus [2]) | Activity (Rattus norvegicus [7]) | Time (Rattus norvegicus [8]) [h] | TD50 [9] [mg/kg] | Activity (Rattus norvegicus [10]) | minimal effective dose (Mus musculus [11]) [mg/kg] | ED50 (Rattus norvegicus [12]) [mg/kg] | Activity (Rattus norvegicus [14]) | Activity (Rattus norvegicus [15]) | minimal effective dose (Mus musculus [16]) [mg/kg] | Activity (Rattus norvegicus [17]) | Time (Mus musculus [19]) [h] | minimal effective dose (Mus musculus [21]) [mg/kg] | minimal effective dose (Mus musculus [23]) [mg/kg] | logP [25] | Activity (Mus musculus [27]) | Activity (Mus musculus [29]) | Activity (Rattus norvegicus [30]) | PI (Rattus norvegicus [31]) | other results
CCC1(C)CC(=O)NC1=O (stereo not drawn) [ETHOSUXIMIDE] | >3 | Non-toxic | Non-toxic | 2 | > 500 | Non-toxic | 100 | > 500 | Non-toxic | inactive | 300 | Non-toxic |  |  |  |  |  |  |  |  | Activity (Mus musculus [3]): inactive; Activity (Mus musculus [4]): inactive; Activity (Mus musculus [5]): Non-toxic; Activity (Rattus norvegicus [6]): inactive; Activity (Mus musculus [13]): Non-toxic
CC[C@@H](C(N)=O)N1CCCC1=O |  |  |  |  |  |  |  |  |  |  |  |  | 1 |  |  |  |  |  |  |  | TD50 [18]: > 500 mg/kg
O=C1NC(c2ccc(Cl)cc2)(C2CC2)C(=O)N1CN1CCN(CCc2ccccc2)CC1 (stereo not drawn) |  |  |  |  |  |  |  |  |  |  |  |  |  | 300 | 300 | 3.97 |  |  |  |  | MTC (Mus musculus [20]): 30 mg/kg; MTC (Mus musculus [22]): 30 mg/kg; Activity (Mus musculus [24]): Toxic; Activity (Mus musculus [26]): Toxic
CCOC(=O)N1CCN(CN2C(=O)NC(c3ccccc3)(C3CC3)C2=O)CC1 (stereo not drawn) |  |  |  |  |  |  | 100 |  |  |  | 300 |  |  | 100 | 100 | 1.76 | Toxic | Toxic |  |  | Activity (Mus musculus [28]): Toxic
O=C1NC(c2ccccc2)(C2CC2)C(=O)N1CN1CCOCC1 (stereo not drawn) |  | Non-toxic | Non-toxic | 4 | < 150 | Non-toxic | 30 | 13.9 | Non-toxic | inactive | 300 | Non-toxic |  | 30 | 100 | 1.33 |  | Toxic | Non-toxic | <10.79 | Activity (Rattus norvegicus [32]): inactive; Activity (Rattus norvegicus [33]): Non-toxic; Activity (Rattus norvegicus [34]): Active; Activity (Rattus norvegicus [35]): Non-toxic; Activity (Rattus norvegicus [36]): inactive; Activity (Mus musculus [37]): Toxic; Activity (Rattus norvegicus [38]): Non-toxic; Activity (Rattus norvegicus [39]): Non-toxic
O=C1NC(=O)C(c2ccccc2)(C2CC2)N1 (stereo not drawn) | 1.35 | Non-toxic | Non-toxic | 2 | 77.6 | Non-toxic | 30 | 5.76 | Non-toxic | inactive | 100 | Non-toxic | 2 | 30 | 30 | 1.66 | Toxic | Toxic | Non-toxic | 13.47 | Activity (Rattus norvegicus [40]): Active; Activity (Mus musculus [41]): Active; ED50 (Rattus norvegicus [42]): 57.3 mg/kg; Activity (Rattus norvegicus [33]): Non-toxic; Activity (Rattus norvegicus [43]): Active; Activity (Rattus norvegicus [44]): Active; Activity (Rattus norvegicus [35]): Non-toxic; Activity (Rattus norvegicus [45]): Active; Activity (Rattus norvegicus [46]): Active; ED50 (Mus musculus [47]): 26.1 mg/kg; Activity (Mus musculus [48]): Active; Activity (Rattus norvegicus [38]): Non-toxic; Activity (Mus musculus [49]): Active; Activity (Rattus norvegicus [39]): Non-toxic
